Assays:
[1] = test system: Algal; conditions: in vivo
Procedure: (§1) (4) An ecotoxicity test was performed on various alkyl polyglucosides.

[2] = test system: Water flea; conditions: in vivo
Procedure: as §1

Substance | Algal test EC50 (72 h) [1] [µg/mL] | Water flea test EC50 (49 h) [2] [µg/mL]
fatty acid methyl ester ethoxylate [FMEE] | >100 | 79.2
alkyl ethoxylate [AEO] | 1.2 | 1.9

From patent US11453847B2, “Laundry sheet” (priority 2018, dated 2022)
